According to US12022829B2, “Water-dispersible fine particle” (TOYOBO CO., LTD., priority 2018, dated 2024):

What was measured:
Type in all cases: cell-based
P. fluorescens biofilm [1] = assay: Anti-biofilm coat test using fine particle suspension (Test example 2); conditions: water washing, cultivation 30° C. 48 hours, CV staining
Method: (§1) A test piece was taken out after the cultivation and washed using normal saline, and a biofilm amount adhered on the test piece surface was measured. The biofilm amount was measured by CV (crystal violet) staining method. Specifically, a test piece was immersed in 0.1 wt % CV aqueous solution for 30 minutes, an excessive CV was washed out using water, an extraction from the stained region was carried out using 98% ethanol, and an absorbance of 500 nm was measured.
P. fluorescens, which is a gram-negative bacillus having high productivity of a biofilm, was used for evaluating an anti-biofilm property. A dried standard product of P. fluorescens was obtained as NBRC No. 14160 and recovered by the following method. DAIGO growth medium 802 (8.4 g) manufactured by Wako Pure Chemical Corporation and 300 mL of purified water were weighed and added into a beaker, and the mixture was stirred at room temperature for about 30 minutes for dispersion. A recovering liquid was sterilized by an autoclave, 0.2 mL of the recovering liquid was taken out using a micropipette and added into an ample of a dried standard product of P. fluorescens, and the mixture was stirred. Separately, 25 mL of SCD broth (Soybean-Casein Digest Broth) manufactured by Wako Pure Chemical Corporation was added in a flask, and […] of the above P. fluorescens suspension was subsequently added thereto. The bacterium was cultivated at 30° C. and a velocity of 150 rpm in a constant temperature incubator shaker for 24 hours for cultivation. After the cultivation, the bacterium was added in 80% glycerol, and the bacterium liquid was preserved at −80° C.
A fine particle suspension of ε-PL was prepared by using the GPE-ized polycarboxylic acid of Production examples 1 to 5 as a test sample liquid for an anti-biofilm coat. A fine particle suspension was prepared by mixing the both of the aqueous solutions of the GPE-ized polycarboxylic acid and ε-PL so that a concentration of the GPE-ized polycarboxylic acid in the fine particle suspension became 0.5 wt % and a concentration of ε-PL became 0.045 wt %. For comparison, a simple ε-PL aqueous solution, an IPMP (4-isopropyl-3-methylphenol, manufactured by Wako Pure Chemical Corporation) ethanol solution and a silver nano particle aqueous suspension manufactured by JAPAN ION Corporation having concentrations of 0.045 wt % were respectively produced. […] The test piece coated with each drug was stirred at 25° C. and 350 rpm for 1 minute for washing with water as a water section environment. The test piece after the water washing was immersed in a broth containing the bacterium liquid prepared in Test example 1, and a biofilm was formed by a cultivation at 30° C. for 48 hours. A concentration was adjusted to 10 cfu/mL by diluting the P. fluorescens liquid with SCD broth. The test piece was taken cut after the cultivation, washed using normal saline, and an amount of a biofilm adhered on the surface of the test piece was measured. A biofilm inhibition rate was calculated by the following formula: Biofilm inhibition rate (%)=(measurement value of untreated test piece−measurement value of test piece coated with test liquid)/(measurement value of untreated test piece)×100

P. fluorescens biofilm [2] = assay: Biofilm removing effect test after immersion in drug (Test example 3); conditions: 1-week biofilm in 48-well microplate, CV staining
Method: as §1
SCD broth containing the bacterial liquid of P. fluorescens having a concentration of 10^6 cfu/mL prepared in Test example 1 was added to 48-well microplate manufactured by Sumitomo Bakelite Co., Ltd. for cultivation at 30° C. for 1 week to form a biofilm in the plate. The bacterial liquid as supernatant was removed, and the residue was rinsed using a sterilized normal saline and dried. The test liquid was prepared by a similar method to Test example 2. Specifically, a fine particle suspension was prepared so that a concentration of GPE-ized polycarboxylic acid became 0.5 wt % and a concentration of ε-PL became 0.04 wt % in the suspension. In a microplate in which a biofilm was formed, 1 mL of each test liquid was added to immerse the biofilm for 1 minute, 10 minutes, 30 minutes or 60 minutes to evaluate a biofilm removing effect at every immersion (contact) time. The test drug was removed after a lapse of the immersion (contact) time, and the residue was immediately washed using 1 mL of normal saline two times and dried to measure a biofilm amount by CV staining method described in Test example 2. A biofilm removing rate was calculated by the following formula: Biofilm removing rate (%)=(measurement value of untreatment−measurement value after immersion in test liquid)/(measurement value of untreatment)×100

P. fluorescens biofilm [3] = assay: Biofilm inhibition test after immersion in (contact with) drug (Test example 4); conditions: then re-cultivation in SCD broth 30° C. 24 hours, CV staining
Method: as §1
In a microplate of Test example 3 in which a biofilm was formed, 1 mL of each test drug was added for an immersion for 1 minute, 10 minutes, 30 minutes or 60 minutes. The test drug was removed after the contact time, and the residue was washed using 1 mL of normal saline two times. In the microplate, 1 mL of SCD broth was added for a cultivation at 30° C. for 24 hours to form a biofilm again and to evaluate a re-inhibition property of a biofilm. An amount of a biofilm was measured after the cultivation. An amount of a biofilm was measured by CV staining method described in Test example 2. A biofilm inhibition rate was calculated by the following formula: Biofilm inhibition rate (6)=(measurement value of untreatment−measurement value after immersion in test liquid)/(measurement value of untreatment)×100

[4] = test system: P. fluorescens in biofilm; assay: Biofilm bactericidal property test (Test example 5); conditions: untreated 40000 cfu/well
Method: A number of a viable bacterium in the biofilm was measured by adding 1 mL of normal saline to the surface material on which a biofilm was adsorbed, destroying the biofilm using a ultrasonic washing machine, collecting an elution liquid, diluting the elution liquid from 10^2 to 10^8 using normal saline, inoculating the diluted solution into petri Film™ broth manufactured by 3M, performing cultivation at 30° C. for 1 week, and counting colonies.
After the test drug was contacted with a biofilm, a bactericidal property against the bacterium in the biofilm was tested. In a microplate of Test example 3 in which a biofilm was formed, 1 mL of each test drug was added for an immersion for 1 minute, 10 minutes, 30 minutes and 60 minutes. The test drug was removed after the lapse of contact time, and the reside was immediately washed using 1 mL of normal saline two times. In the microplate, 1 mL of normal saline was added. The bacterium was eluted in the normal saline by treating the mixture for 1 minute using an ultrasound bath to destroy the biofilm. The eluate was diluted from 10^2 to 10^8 using sterilized normal saline, and inoculated to Petrifilm™ broth manufactured by 3M for a cultivation at 30° C. for 1 week. Then, the number of colonies was counted and the number of viable bacteria was measured. The number of viable bacteria was 40000 cfu/well in the untreatment case; on the one hand, it was confirmed that the bacteria number in a biofilm was reduced by an immersion in the fine particle suspension in Examples 37 to 39 as the number of viable bacteria was reduced.

[5] = adhesion amount 0.01 μg/cm^2 on polyvinyl chloride test piece
[6] = adhesion amount 0.02 μg/cm^2 on polyvinyl chloride test piece
[7] = adhesion amount 0.12 μg/cm^2 on polyvinyl chloride test piece
[8] = adhesion amount 0.04 μg/cm^2 on polyvinyl chloride test piece
[9] = adhesion amount 0.08 μg/cm^2 on polyvinyl chloride test piece

## ε-poly-L-lysine [compound 7]
P. fluorescens biofilm [1]; [5]
  Biofilm inhibition rate: 5%

## ε-poly-L-lysine [compound 8]
P. fluorescens biofilm [1]; [6]
  Biofilm inhibition rate: 29%

## ε-poly-L-lysine [compound 11]
P. fluorescens biofilm [1]; [7]
  Biofilm inhibition rate: 57%

## ε-poly-L-lysine [compound 22]
P. fluorescens biofilm [2]; contact time 1 min
  Removal rate of biofilm every contact time (Test example 3): 87%
P. fluorescens biofilm [2]; contact time 10 min
  Removal rate of biofilm every contact time (Test example 3): 87%
P. fluorescens biofilm [2]; contact time 30 min
  Removal rate of biofilm every contact time (Test example 3): 84%
P. fluorescens biofilm [2]; contact time 60 min
  Removal rate of biofilm every contact time (Test example 3): 83%
P. fluorescens biofilm [3]; contact time 1 min
  Removal rate of biofilm every contact time (Test example 4): 22%
P. fluorescens biofilm [3]; contact time 10 min
  Removal rate of biofilm every contact time (Test example 4): 38%
P. fluorescens biofilm [3]; contact time 30 min
  Removal rate of biofilm every contact time (Test example 4): 40%
P. fluorescens biofilm [3]; contact time 60 min
  Removal rate of biofilm every contact time (Test example 4): 45%

## ε-poly-L-lysine [compound 25]
[4]; contact time 1 min
  Number of viable bacteria in biofilm every contact time: 1200 cfu/well
[4]; contact time 10 min
  Number of viable bacteria in biofilm every contact time: 1200 cfu/well
[4]; contact time 30 min
  Number of viable bacteria in biofilm every contact time: 1200 cfu/well
[4]; contact time 60 min
  Number of viable bacteria in biofilm every contact time: 1200 cfu/well

## Cc1cc(O)ccc1C(C)C [compound 19, 4-isopropyl-3-methylphenol]
P. fluorescens biofilm [1]; [8]
  Biofilm inhibition rate: 57%

## Cc1cc(O)ccc1C(C)C [compound 27, 4-isopropyl-3-methylphenol]
[4]; contact time 1 min
  Number of viable bacteria in biofilm every contact time: 1900 cfu/well
[4]; contact time 10 min
  Number of viable bacteria in biofilm every contact time: 800 cfu/well
[4]; contact time 30 min
  Number of viable bacteria in biofilm every contact time: 800 cfu/well
[4]; contact time 60 min
  Number of viable bacteria in biofilm every contact time: 800 cfu/well

## Cc1cc(O)ccc1C(C)C [compound 20, 4-isopropyl-3-methylphenol]
P. fluorescens biofilm [1]; [9]
  Biofilm inhibition rate: 66%

## Cc1cc(O)ccc1C(C)C [compound 17, 4-isopropyl-3-methylphenol]
P. fluorescens biofilm [1]; [5]
  Biofilm inhibition rate: 41%

## Cc1cc(O)ccc1C(C)C [compound 21, 4-isopropyl-3-methylphenol]
P. fluorescens biofilm [1]; [7]
  Biofilm inhibition rate: 75%

## Cc1cc(O)ccc1C(C)C [compound 18, 4-isopropyl-3-methylphenol]
P. fluorescens biofilm [1]; [6]
  Biofilm inhibition rate: 48%

## Cc1cc(O)ccc1C(C)C [compound 24, 4-isopropyl-3-methylphenol]
P. fluorescens biofilm [2]; contact time 1 min
  Removal rate of biofilm every contact time (Test example 3): 60%
P. fluorescens biofilm [2]; contact time 10 min
  Removal rate of biofilm every contact time (Test example 3): 56%
P. fluorescens biofilm [2]; contact time 30 min
  Removal rate of biofilm every contact time (Test example 3): 61%
P. fluorescens biofilm [2]; contact time 60 min
  Removal rate of biofilm every contact time (Test example 3): 52%
P. fluorescens biofilm [3]; contact time 1 min
  Removal rate of biofilm every contact time (Test example 4): 22%
P. fluorescens biofilm [3]; contact time 10 min
  Removal rate of biofilm every contact time (Test example 4): 33%
P. fluorescens biofilm [3]; contact time 30 min
  Removal rate of biofilm every contact time (Test example 4): 37%
P. fluorescens biofilm [3]; contact time 60 min
  Removal rate of biofilm every contact time (Test example 4): 57%

## ε-poly-L-lysine [compound 10]
P. fluorescens biofilm [1]; [9]
  Biofilm inhibition rate: 52%

## ε-poly-L-lysine [compound 9]
P. fluorescens biofilm [1]; [8]
  Biofilm inhibition rate: 45%
